Reference: patent US8802704B2, “Oxadiazole derivatives” (Merck Serono SA, priority 2009, dated 2014)
Read-outs that look alike come from different tables or passages of the source.

Columns and labels:
[1] = target: T1, S1P1 (Homo sapiens, UniProt P21453); assay: Receptor binding assay, [33P]sphingosine 1-phosphate competition (SPA), S1P1
Description: Cells were suspended in 50 mM TRIS, pH 7.4, 2 mM EDTA, 250 mM Sucrose (buffer A) and 1× Complete protease inhibitor cocktail (Roche), and disrupted at 4° C. by N2 decompression using a cell disruption bomb (Parr Instrument). […] The pellet was then suspended in 10 mM HEPES, pH 7.4, 1 mM EDTA, 250 mM Sucrose (Buffer B), and 1× Complete EDTA-free protease inhibitor cocktail and homogenized using a potter. Membranes were flash frozen in liquid N2 and stored at −80° C.
[33P]sphingosine 1-phosphate (3000 Ci/mmol; American Radiolabeled Chemicals, Inc.) was added to test compounds in 20% DMSO by competition. […] Triplicate samples were averaged and normalized as percentage of inhibition relative to total binding (only DMSO in well) and non-specific binding (1000-fold excess of unlabeled S1P). Binding data were analyzed using the GraphPad Prism program or Genedata software.
Target sequence in this assay (P21453 whole entry, species assumed): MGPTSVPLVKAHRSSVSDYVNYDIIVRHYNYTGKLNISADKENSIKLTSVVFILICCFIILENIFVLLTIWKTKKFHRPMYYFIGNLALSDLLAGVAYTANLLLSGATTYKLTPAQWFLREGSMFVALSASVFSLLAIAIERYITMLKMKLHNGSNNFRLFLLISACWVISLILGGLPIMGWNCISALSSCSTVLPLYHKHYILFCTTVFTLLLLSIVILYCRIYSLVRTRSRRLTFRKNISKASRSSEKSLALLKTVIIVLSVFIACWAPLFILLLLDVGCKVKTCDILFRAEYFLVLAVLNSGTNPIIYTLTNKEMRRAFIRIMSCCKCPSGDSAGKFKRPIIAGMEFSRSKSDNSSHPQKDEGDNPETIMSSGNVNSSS

[2] = target: S1P3 (Homo sapiens, UniProt Q99500); assay: Receptor binding assay, [33P]sphingosine 1-phosphate competition (SPA), S1P3
Description: Membranes were prepared from CHO cells expressing S1P1 or S1P3 for use in ligand and […] binding studies. Cells were suspended in 50 mM TRIS, pH 7.4, 2 mM EDTA, 250 mM Sucrose (buffer A) and 1× Complete protease inhibitor cocktail (Roche), and disrupted at 4° C. by N2 decompression using a cell disruption bomb (Parr Instrument). Following centrifugation at 1000 RPM for 10 min at 4° C., the supernatant was diluted (2×) in buffer A and centrifuged again at 19000 RPM for 75 min at 4° C. The pellet was then suspended in 10 mM HEPES, pH 7.4, 1 mM EDTA, 250 mM Sucrose (Buffer B), and 1× Complete EDTA-free protease inhibitor cocktail and homogenized using a potter. Membranes were flash frozen in liquid N2 and stored at −80° C.
[33P]sphingosine 1-phosphate (3000 Ci/mmol; American Radiolabeled Chemicals, Inc.) was added to test compounds in 20% DMSO by competition. Membranes and WGA SPA beads (GE Healthcare) were added to give a final volume of 100 μl in 96-well plates or 50 μl in 384-well plates with assay concentrations of 30 pM or 15 pM [33P]sphingosine 1-phosphate (respectively for S1P1 or S1P3), 50 mM HEPES, pH 7.5, 5 mM MgCl2, 100 mM NaCl, 0.4% fatty acid-free BSA, 1-5 μg/well of proteins in 96-well plates vs 0.6-1 μg/well of proteins in 384-well plates and 100 μg/well of WGA SPA beads in 96-well plates vs 75 μg/well of WGA SPA beads in 384-well plates. Binding was performed for 60 min at RT on a shaker and bound radioactivity was measured on a PerkinElmer 1450 MicroBeta counter. Triplicate samples were averaged and normalized as percentage of inhibition relative to total binding (only DMSO in well) and non-specific binding (1000-fold excess of unlabeled S1P). Binding data were analyzed using the GraphPad Prism program or Genedata software.

[3] = target: T1, S1P1; assay: S1P1 internalization assay in S1P1-U2OS cells (cell imaging); format: cell-based; settings: U2OS cells expressing S1P1-EGFP, 1 hour
Description: Cellular functional assays: Internalization of Sphingosine-1-phosphate receptor 1 (S1P1) in a human Cell line (U2OS) in a 384-well format using a Cell Imaging analysis.
The S1P1 internalization assay was performed in 384 well plates (Corning® 384 black with clear bottom 3712) using S1P1-U2OS cells from Biolmage (C039A), a human epithelial cell line (Human Bone Osteosarcoma Epithelial Cells). These cells expressed the human S1P1 Receptor fused to the green fluorescent protein (EGFP). A standard CMV promoter (cytomegalovirus promoter) controls the expression of S1P1-EGFP and continuous expression was maintained by addition of geneticin to the culture medium.
S1P1Receptor desensitization induced the internalization of the membrane-localized S1P1-EGFP fusion protein to endosomes, which can be monitored by cell imaging analysis. The cells are plated in low serum medium (Dulbecco's Modified Eagle Medium (DMEM) with Glutamax-1 and high glucose, 1% Penicillin/Streptomycin, 1% Fetal Calf Serum (FCS), 0.5 mg/ml Geneticin) overnight.
The next day, S1P1-U2OS cells are incubated in 20 μl serum free medium (DMEM with Glutamax-1 and high glucose, 0.1% of fatty-acid free Bovin Serum Albumin (BSA), 10 mM, N′-2-Hydroxyethylpiperazine-N′-2 ethanesulphonic acid (HEPES) 1M) for 2 hours at 37° C./5% CO2. The cells are then treated with 4 μl compounds/agonists (6×/3% DMSO) for a total volume of 24 μl, and plates are incubated for 1 hour at 37° C./5% CO2.
S1P1-U2OS cells are fixed with 25 μl Paraformaldehyde 8% and stained with Hoechst 33345 dye (1:1000) for 20 minutes.
They were then washed 3 times with Phosphate Buffered Saline (PBS) and plates are sealed. The internalization of the receptor S1P1-EGFP is measured on Cellomics by calculating the “spot count per object” (“object” corresponds to nuclear and “spot” corresponds to S1P1-EGFP receptor). Internalization data were observed thanks to vHCS View and analyzed using Genedata® software.
Target sequence in this assay (P21453 whole entry): as the sequence (P21453 whole entry, species assumed) above

[4] = 384 well-plate, read-out: S1P1 binding Ki (M) (384 well-plate)
[5] = 384 well-plate, read-out: S1P3 binding Ki (M) (384 well-plate)
[6] = 96 well-plate, read-out: S1P1 binding Ki (M) (96 well-plate)
[7] = 96 well-plate, read-out: S1P3 binding Ki (M) (96 well-plate)

Sequence of S1P3 (Q99500 whole entry, species assumed): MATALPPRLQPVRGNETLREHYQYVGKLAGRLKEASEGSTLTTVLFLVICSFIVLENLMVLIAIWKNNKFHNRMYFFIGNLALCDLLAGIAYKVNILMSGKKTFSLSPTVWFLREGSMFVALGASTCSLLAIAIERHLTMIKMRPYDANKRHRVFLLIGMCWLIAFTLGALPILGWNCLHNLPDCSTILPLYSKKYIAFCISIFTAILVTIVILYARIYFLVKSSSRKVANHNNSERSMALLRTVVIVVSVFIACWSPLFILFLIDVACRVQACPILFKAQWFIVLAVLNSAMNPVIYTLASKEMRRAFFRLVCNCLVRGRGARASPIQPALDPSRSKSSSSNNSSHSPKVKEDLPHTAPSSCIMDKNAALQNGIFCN

Row | Compound | Ki [1, 4] | Ki [2, 5] | EC50 [3] | Ki [1, 6] | Ki [2, 7]
1 | Cc1ccccc1-c1ccc(-c2nc(-c3ccc(CN(C)CC(=O)O)cc3Cl)no2)cc1C(F)(F)F [Example 145, 2-((4-(5-(2-(trifluoromethyl)-2′-methylbiphenyl-4-yl)-1,2,4-oxadiazol-3-yl)-3-chlorobenzyl)(methyl)amino)acetic acid] | 2.22e-09 M | 2.85e-07 M | 9.44 nM |  | 
2 | CCc1cc(-c2noc(-c3ccc(-c4ccccc4C)c(C(F)(F)F)c3)n2)ccc1CN(C)CC(=O)O [Example 155, 2-((2-ethyl-4-(5-(2′-methyl-2-(trifluoromethyl)biphenyl-4-yl)-1,2,4-oxadiazol-3-yl)benzyl)(methy)amino)acetic acid] | 3.72e-09 M | 8.1e-06 M | 17.3 nM |  | 
3 | CN(CC(=O)O)Cc1cccc(-c2noc(-c3ccc(-c4ccccc4)c(C(F)(F)F)c3)n2)c1 [Example 68] |  |  | 11.2 nM | 3.57e-10 M | 1.09e-07 M
4 | Cc1cc(-c2noc(-c3ccc(-c4ccccc4C)c(C(F)(F)F)c3)n2)ccc1CN(C)CC(=O)O [Example 154, 2-(methyl(2-methyl-4-(5-(2′-methyl-2-(trifluoromethyl)biphenyl-4-yl)-1,2,4-oxadiazol-3-yl)benzyl)amino)acetic acid] | 3.16e-09 M | 1.07e-06 M | 17.3 nM |  | 
5 | COCc1cc(-c2nc(-c3cccc(CN(C)CC(=O)O)c3F)no2)ccc1-c1ccccc1C(F)(F)F [Example 114, N-(2-fluoro-3-{5-[2-(methoxymethyl)-2′-(trifluoromethyl)biphenyl-4-yl]-1,2,4-oxadiazol-3-yl}benzyl)-N-methylglycine] | 1.91e-09 M | 9.14e-07 M | 15.6 nM |  | 1.09e-06 M
6 | Cc1ccccc1-c1ccc(-c2nc(-c3ccc(CN(C)CC(=O)O)cc3)no2)cc1C(F)(F)F [Example 81, N-methyl-N-(4-{5-[2′-methyl-2-(trifluoromethyl)biphenyl-4-yl]-1,2,4-oxadiazol-3-yl}benzyl)glycine] | 2.74e-09 M | 8.55e-07 M | 11.4 nM | 4.12e-10 M | 8.31e-07 M
7 | CCOc1cc(-c2nc(-c3ccc(CN(C)CC(=O)O)cc3)no2)ccc1-c1ccccc1C(F)(F)F [Example 115, N-(4-{5-[2-ethoxy-2′-(trifluoromethyl)biphenyl-4-yl]-1,2,4-oxadiazol-3-yl}benzyl)-N-methylglycine] | 2.15e-09 M | 2.21e-06 M | 9.03 nM |  | 6.68e-07 M
8 | COCCN(CC(=O)O)Cc1ccc(-c2noc(-c3ccc(-c4ccccc4C)c(C(F)(F)F)c3)n2)cc1 [Example 138, N-(2-methoxyethyl)-N-(4-{5-[2′-methyl-2-(trifluoromethyl)biphenyl-4-yl]-1,2,4-oxadiazol-3-yl}benzyl)glycine] | 5.16e-09 M | 4.79e-07 M | 26.1 nM |  | 
9 | Cc1ccccc1-c1ccc(-c2nc(-c3ccc(CN(C)CC(=O)O)c(Cl)c3)no2)cc1C(F)(F)F [Example 129, 2-((4-(5-(2-(trifluoromethyl)-2′-methylbiphenyl-4-yl)-1,2,4-oxadiazol-3-yl)-2-chlorobenzyl)(methyl)amino)acetic acid] | 5.33e-09 M | 9.76e-07 M | 23.3 nM |  | 
10 | COCc1cc(-c2nc(-c3cccc(CN(C)CC(=O)O)c3)no2)ccc1-c1ccccc1C(F)(F)F [Example 49, N-(3-{5-[2-(methoxymethyl)-2′-(trifluoromethyl)biphenyl-4-yl]-1,2,4-oxadiazol-3-yl}benzyl)-N-methylglycine] | 2.35e-09 M | 1.41e-06 M | 11.3 nM | 8.7e-10 M | 1.5e-06 M
11 | CN(CC(=O)O)Cc1cc(F)cc(-c2noc(-c3ccc(-c4ccccc4)c(C(F)(F)F)c3)n2)c1 [Example 67] |  |  | 11.9 nM | 2.31e-10 M | 3.69e-08 M
12 | Cc1cc(-c2nc(-c3cc(F)cc(CN(C)CC(=O)O)c3)no2)ccc1-c1ccccc1C(F)(F)F [Example 104, N-(3-fluoro-5-{5-[2-methyl-2′-(trifluoromethyl)biphenyl-4-yl]-1,2,4-oxadiazol-3-yl}benzyl)-N-methylglycine] | 8.98e-09 M | 2.14e-06 M | 15 nM |  | 
13 | Cc1ccccc1-c1ccc(-c2nc(-c3cc(F)cc(CN(C)CC(=O)O)c3)no2)cc1C(F)(F)F [Example 64, N-(3-fluoro-5-{5-[2′-methyl-2-(trifluoromethyl)biphenyl-4-yl]-1,2,4-oxadiazol-3-yl}benzyl)-N-methylglycine] |  |  | 8.11 nM | 2.96e-10 M | 3.68e-08 M
14 | Cc1cc(-c2nc(-c3ccc(CN(C)CC(=O)O)cc3)no2)ccc1-c1ccccc1C(F)(F)F [Example 100, N-methyl-N-(4-{5-[2-methyl-2′-(trifluoromethyl)biphenyl-4-yl]-1,2,4-oxadiazol-3-yl}benzyl)glycine] | 3.49e-09 M | 9.67e-06 M | 56.1 nM | 1.04e-09 M | 9.43e-06 M
15 | Cc1cc(-c2nc(-c3ccc(CN(C)CC(=O)O)c(F)c3F)no2)ccc1-c1ccccc1C(F)(F)F [Example 152, 2-((2,3-difluoro-4-(5-(2-methyl-2′-(trifluoromethyl)biphenyl-4-yl)-1,2,4-oxadiazol-3-yl)benzyl)(methyl)amino)acetic acid] | 3.71e-09 M | 1.25e-05 M | 68.4 nM |  | 
16 | COCc1cc(-c2nc(-c3ccc(CN(C)CC(=O)O)c(C(F)(F)F)c3)no2)ccc1-c1ccccc1C [Example 105] | 3.3e-09 M | 1.88e-06 M | 74.9 nM |  | 1.83e-06 M
17 | Cc1ccccc1-c1ccc(-c2nc(-c3cc(F)c(CN(C)CC(=O)O)c(F)c3)no2)cc1C(F)(F)F [Example 148, 2-((2,6-difluoro-4-(5-(2′-methyl-2-(trifluoromethyl)biphenyl-4-yl)-1,2,4-oxadiazol-3-yl)benzyl)(methyl)amino)acetic acid] | 2.38e-09 M | 8.34e-07 M | 24.7 nM |  | 
18 | Cc1ccccc1-c1ccc(-c2nc(-c3ccc(CN(C)CC(=O)O)c(F)c3F)no2)cc1C(F)(F)F [Example 150, 2-((2,3-difluoro-4-(5-(2-(trifluoromethyl)-2′-methylbiphenyl-4-yl)-1,2,4-oxadiazol-3-yl)benzyl)(methyl)amino)acetic acid] | 2.07e-09 M | 2.97e-07 M | 18 nM |  | 
19 | CN(CC(=O)O)Cc1ccc(-c2noc(-c3ccc(-c4ccccc4C(F)(F)F)c(Cl)c3)n2)cc1F [Example 134, N-(4-{5-[2-chloro-2′-(trifluoromethyl)biphenyl-4-yl]-1,2,4-oxadiazol-3-yl}-2-fluorobenzyl)-N-methylglycine] | 4.07e-09 M | 1.8e-05 M | 37.3 nM |  | 
